Among the data in US5344843A, “Cat-1 inhibitors, pharmaceutical compositions and methods of use” (Hoffman-La Roche Inc., priority 1992, dated 1994) are IC50 and inhibition values, retold here.

Each structure is given as a SMILES string. Like-named read-outs stand apart in the source and are kept apart here.

This assay has as its target T1, CAT-1 (carnitine acyltransferase 1) (Rattus norvegicus, UniProt Q63704).
T1 construct: This preparation is used as the isolated mitochondrial preparation; from tissue; host or cells: rat heart (atria removed), isolated mitochondria
T1 sequence (Q63704 1-772): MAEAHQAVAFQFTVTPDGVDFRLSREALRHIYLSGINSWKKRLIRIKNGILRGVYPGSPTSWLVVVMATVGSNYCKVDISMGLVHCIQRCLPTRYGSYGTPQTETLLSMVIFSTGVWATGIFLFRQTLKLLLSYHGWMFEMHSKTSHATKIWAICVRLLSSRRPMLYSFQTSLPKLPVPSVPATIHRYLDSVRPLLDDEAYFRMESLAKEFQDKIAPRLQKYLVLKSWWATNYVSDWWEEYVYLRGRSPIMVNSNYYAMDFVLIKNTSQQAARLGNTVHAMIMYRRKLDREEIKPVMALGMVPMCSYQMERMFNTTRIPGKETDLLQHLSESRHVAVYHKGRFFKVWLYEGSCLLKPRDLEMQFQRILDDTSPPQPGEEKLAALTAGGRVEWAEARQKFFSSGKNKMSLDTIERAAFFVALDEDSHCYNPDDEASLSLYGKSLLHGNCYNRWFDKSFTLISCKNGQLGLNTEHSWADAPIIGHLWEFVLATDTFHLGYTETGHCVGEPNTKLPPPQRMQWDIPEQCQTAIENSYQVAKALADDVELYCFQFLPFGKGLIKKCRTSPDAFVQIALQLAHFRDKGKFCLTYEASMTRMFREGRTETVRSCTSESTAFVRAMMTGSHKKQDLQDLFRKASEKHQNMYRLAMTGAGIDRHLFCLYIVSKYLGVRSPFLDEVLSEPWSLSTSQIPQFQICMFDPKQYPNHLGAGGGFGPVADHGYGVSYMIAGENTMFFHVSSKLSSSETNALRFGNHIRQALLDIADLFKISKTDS
The assay is described as follows: Primary Screen--Inhibition of CAT-1 in isolated mitochondria. The format is biochemical. Also on record: inhibition: dose or concentration left out as unconfirmed.

[1] abbreviates: rat heart mitochondria, reduction of palmitoyl carnitine formation by 50%, read-out: Primary Screen IC50.

Procedure: Primary Screen--Inhibitors of CAT-1 in 1Mitochondria
(a). Preparation of Mitochondria
The heart is rapidly removed from an anesthetized rat (sodium pentabarbitol) and placed in ice-cold homogenization buffer (sucrose, 250 mM; Tris, 10 mM; EDTA, 1 mM; BSA, 0.01%; pH=7.4). The atria and extraneous tissue are removed and the remainder is chopped with scissors. The pieces are rinsed in homogenization buffer before being homogenized in 10 mL of the same buffer for 5-7 seconds. The homogenate is then diluted with homogenization buffer (40 total volume) and centrifuged at 200 g for 20 minutes. The supernatant is withdrawn and centrifuged at 7000 g for 20 minutes and the resulting pellet is isolated, resuspended in 40 mL of homogenization buffer and centrifuged once more at 7000 g for 20 minutes. The isolated pellet is resuspended in 10 mL of homogenization buffer and stored at 4° C. until use. This preparation is used as the isolated mitochondrial preparation.
(b). Inhibition of CAT-1 assay
Isolated mitochondria (20 μL) are incubated with 60 μL of Tris/sucrose buffer (sucrose, 500 mM; Tris, 20 mM; KCl, 100 mM; EDTA, 2 mM; pH=7.0 plus 83 μM palmitoyl CoA, and BSA, 0.8 mg/mL and 10^-4 to 10^-10 M of the drug to be tested. After 10 minutes at 30° C., the reaction is started by addition of 10 μL of ^3 H-carnitine (final concentration=250 μM). After 5 minutes, the reaction is terminated by the addition of ice cold 70% perchloric acid (PCA). The precipitated solids so formed, containing the insoluble product of the enzyme palmitoyl carnitine, are captured on filter paper. The filter paper is washed with 7% PCA, then dried and placed in scintillation vials with 10 mL of scintillant (Aquasol, New England Nuclear) and counted for radioactivity. The rate of the reaction is assessed by the difference in radioactivity between zero time and five minutes in the absence of test compound. The ability of test compounds at selected concentrations to inhibit CAT-1 is determined by their ability to reduce the formation of the radioactive product. The IC50 of the test compound is the concentration of test compound that reduces the formation of radioactive product by 50%.

A word on the IC50: it is the point on the concentration scale where inhibition reaches its midpoint. `O=C(O)C(=O)c1ccc(OCC(=O)N2CCc3ccccc3C2)cc1` [Example 251, 4-[2-oxo-2-(1,2,3,4-tetrahydro-2-isoquinolinyl)ethoxy]-alpha-oxobenzeneacetic acid]: the half-inhibitory concentration (IC50) under setting [1] amounted to 0.4 µM.
On the same count and under the same terms, under `O=C(O)C(=O)c1ccc(SCCOc2ccc3ccccc3c2)cc1` [Example 149, 4-[[2-(2-naphthalenyloxy)ethyl]thio]-alpha-oxobenzeneacetic acid] stands 0.08 µM; under `O=C(O)/C(=N/OCc1ccccc1)c1ccc(OCCOc2ccc3ccccc3c2)s1` [Example 315, (Z)-5-[2-(2-naphthalenyloxy)ethoxy]-alpha-[(phenylmethoxy)imino]-2-thiopheneacetic acid], 0.14 µM; under `COCCOc1ccc(C(=O)C(=O)O)cc1` [Example 97, 4-[[2-(methoxy)ethyl]oxy]-alphaoxobenzeneacetic acid], 30 µM.
On to `O=C(O)C(=O)c1ccc(OCCCCc2cccnc2)cc1` [Example 123, alpha-oxo-4-[4-(3-pyridinyl)butoxy]benzeneacetic acid], for which, under setting [1], the IC50 is 1.5 µM.
Still for that read-out and setting: under `O=C(O)C(=O)c1ccc(OCCOC2CCc3ccccc3C2)cc1` (racemic) [Example 114, rac.-alpha-oxo-4-[[2-(1,2,3,4-tetrahydro-2-naphthalenyloxy)ethyl]oxy]benzeneacetic acid] stands 2.8 µM; under `O=C(O)C(=O)c1ccc(OCCOc2ccc(Cl)cc2)cc1` [Example 45, 4-[[2-(4-chlorophenoxy)ethyl]oxy]-alpha-oxobenzeneacetic acid], 0.3 µM; under `O=C(O)C(=O)c1ccc(OCCOc2ccc(C(F)(F)F)cc2)cc1` [Example 51, alpha-oxo-4-[[2-(4-trifluoromethylphenoxy)ethyl]oxy]benzeneacetic acid], 0.8 µM.
On the same count and under the same terms, under `O=C(O)C(=O)c1ccc(OCc2ccc3ccccc3c2)cc1` [Example 155, 4-[(2-naphthalenyl)methoxy]-alpha-oxobenzeneacetic acid] stands 0.22 µM.
The term inhibition denotes the relative decrease from the control value, in per cent. As to `O=C(O)C(=O)c1cc(Cl)c(OCCOc2ccc3ccccc3c2)c(Cl)c1` [Example 189, 3,5-dichloro-4-[2-(2-naphthalenyloxy)ethoxy]-alpha-oxobenzeneacetic acid (6:1) molar benzene solvate], the inhibition came to 28%.
For `O=C(O)C(=O)c1ccc(OCCOc2cccc(F)c2)cc1` [Example 41, 4-[[2-(3-fluorophenoxy)ethyl]oxy]-alpha-oxobenzeneacetic acid], the IC50 under setting [1] worked out at 1 µM.
Still for that read-out and setting: with `O=C(O)C(=O)c1ccc(OCCOc2ccc(C(=O)C(=O)O)cc2)cc1` [Example 55] the figure was 6 µM.
For `O=C(O)C(=O)c1ccc(OCCOc2cc3ccccc3c3ccccc23)cc1` [Example 110, alpha-oxo-4-[[2-(9-phenanthrenyloxy)ethyl]oxy]benzeneacetic acid], 0.1 µM corresponded to half-maximal inhibition (IC50).
Take `COc1cc(OCCOc2ccc(C(=O)C(=O)O)cc2)cc(OC)c1OC` [Example 65, 4-[[2-(3,4,5-trimethoxyphenoxy)ethyl]oxy]-alpha-oxobenzeneacetic acid]: the IC50 under setting [1] was found to be 3 µM.
With `CC(C)(C)c1cc(SCCCOc2ccc(C(=O)C(=O)O)cc2)cc(C(C)(C)C)c1O` [Example 275, 4-[3-[[3,5-bis(1,1-dimethylethyl)-4-hydroxyphenyl]thio]propoxy]-alpha-oxobenzeneacetic acid], the IC50 under setting [1] worked out at 0.57 µM.
On the same count and under the same terms, under `CN(C)/N=C(/C(=O)O)c1ccc(OCCOc2ccc3ccccc3c2)cc1` [Example 320, (E)-alpha-(dimethylhydrazono)-4-[2-(2-naphthalenyloxy)ethoxy]benzeneaceticacid] stands 1.8 µM; under `O=C(O)C(=O)c1ccc(OCCCn2c(=O)ccc3ccccc32)cc1` [Example 264, 4-[3-(1,2-dihydro-2-oxo-1-quinolinyl)propoxy]-alpha-oxobenzeneacetic acid], 12 µM.
The same measure, in the same setting: under `O=C(O)C(=O)c1c(Cl)cc(OCCOc2ccc3ccccc3c2)cc1Cl` [Example 191, 2,6-dichloro-4-[2-(2-naphthalenyloxy)ethoxy]-alpha-oxobenzeneacetic acid] stands 6.7 µM.
Same read-out and setting: under `Cc1cc(OCCOc2ccc3ccccc3c2)ccc1C(=O)C(=O)O` [Example 183, 2-methyl-4-[2-(2-naphthalenyloxy)ethoxy]-alpha-oxobenzeneacetic acid (4:1) hydrate] stands 4.7 µM; under `O=C(O)C(=O)c1ccc(OCC#Cc2ccccc2)cc1` [Example 35, alpha-oxo-4-[(3-phenyl-2-propynyl)oxy]benzeneacetic acid], 0.4 µM.
As for `O=C(O)C(=O)c1ccc(C#CCNC(=O)c2ccc3ccccc3c2)cc1` [Example 146, 4-[3-[[(2-naphthalenyl)carbonyl]amino]-1-propynyl]-alpha-oxobenzeneacetic acid], the IC50 under setting [1] came out at 5.5 µM.
Still for that read-out and setting: with `O=C(O)C(=O)c1ccc(OCCOc2ccc(F)cc2)cc1` [Example 43, 4-[[2-(4-fluorophenoxy)ethyl]oxy]-alpha-oxobenzeneacetic acid] the figure was 0.8 µM.
As for `O=C(O)C(=O)c1ccc(OCCCCCOc2ccccc2)cc1` [Example 73, alpha-oxo-4-[[(5-phenoxy)pentyl]oxy]benzeneacetic acid], the IC50 under setting [1] is 5 µM.
The same measure, in the same setting: with `O=C(O)C(=O)c1ccc(OCCOc2cc3ccccc3cc2OCCOc2ccccc2)cc1` [Example 116, alpha-oxo-4-[[2-[3-(2-phenoxyethoxy)-2-naphthalenyloxy]ethyl]oxy]benzeneacetic acid] the figure was 0.65 µM; with `C=CCO/N=C(/C(=O)O)c1ccc(OCCOc2ccc3ccccc3c2)s1` [Example 312, (Z)-5-[2-(2-naphthalenyloxy)ethoxy]-alpha-[(2-propenyloxy)imino]-2-thiopheneacetic acid], 0.1 µM.
As to `O=C(O)C(=O)c1ccc(OCC(O)COc2ccccc2)cc1` (racemic) [Example 80, rac.-4-[[(2-hydroxy-3-phenoxy)propyl]oxy]-alpha-oxobenzeneacetic acid], under setting [1], the IC50 turned out to be 8 µM.
On to `Cc1nnc2n1-c1sc(CCCOc3ccc(C(=O)C(=O)O)cc3)cc1C(c1ccccc1Cl)=NC2` [Example 296], for which the IC50 came out at 10 µM.
Consider `O=C(O)C(=O)c1ccc(OCCOc2cc3ccccc3cc2OCCO)cc1` [Example 118, 4-[[2-[3-(2-hydroxyethoxy)-2-naphthalenyloxy]ethyl]oxy]-alpha-oxobenzeneacetic acid], for which the IC50 under setting [1] came out at 0.25 µM.
Consider `COc1ccc(OCCOc2ccc(C(=O)C(=O)O)cc2)cc1` [Example 61, 4-[[2-(4-methoxyphenoxy)ethyl]oxy]-alpha-oxobenzeneacetic acid], for which the IC50 under setting [1] is 2 µM.
On the same count and under the same terms, with `CCCc1c(OCCCOc2ccc(C(=O)C(=O)O)cc2)ccc(C(=O)OC)c1O` [Example 268, 4-[3-[3-hydroxy-4-(methoxycarbonyl)-2-propylphenoxy)propoxy]-alpha-oxobenzeneacetic acid] the figure was 0.23 µM; with `O=C(O)C(=O)c1ccc(OCc2cc3ccccc3o2)cc1` [Example 141, 4-[[2-benzofuranyl)methoxy]-alpha-oxobenzeneacetic acid], 0.7 µM; with `Cc1ccc(OCCOc2ccc(C(=O)C(=O)O)cc2)cc1` [Example 49, 4-[[2-(4-methylphenoxy)ethyl]oxy]-alpha-oxobenzeneacetic acid], 4 µM.
